Data set [1] is described as follows: Stability in buffered aqueous solution. As to conditions: buffered at pH=7.0. It is filed as physicochemical.
Data set [2] deals with ZR-75-1 cells. Put plainly: Time course of intracellular [3H]spermidine accumulation in presence of transport antagonists. As to conditions: 200 μM DESC (40-fold excess), 5 μM [3H]spermidine, after 6 hours. In kind it is cell-based, human. The procedure:
The time course of intracellular accumulation of spermidine in the presence of transport antagonists was determined by incubating ZR-75-1 cells in 24-well plates with DESC (50 or 200 μM) or MESC (200 μM) in dissolved in MEZR medium containing 5 μM [^3H]spermidine in the presence or absence of cycloheximide (CHX, 200 μM), and harvesting at the indicated times for the determination of intracellular radioactive contents, as described above for polyamine uptake assays.

Data set [3] is described as follows: Stability in biological media (cell-free, HPLC). It is filed as physicochemical. Particulars: IMEM, 48 hours, 37° C. The procedure:
DESC stability was tested by incubating the compound dissolved (at 50 μM) in PBS or in IMEM medium containing 10% (v/v) fetal bovine serum plus or minus 1 mM aminoguanidine in a humid 5% CO2 atmosphere at 37° C. and in the absence of cells. At indicated times, trichloroacetic acid was added to aliquots of this solution to a final concentration 10% (w/v) and the samples directly analyzed by HPLC as above.
The inability of DESC to block the biological effect of exogenous spermidine, even when present at large molar excesses, might have been caused by its degradation in growth media. To assess this hypothesis, DESC solutions (20 μM) made in PBS or in sterile IMEM medium enriched with 10% (v/v) FBS were incubated for 20 minutes or 48 hours under cell-free conditions at 37° C. in a humid 5% CO2 atmosphere, and the polyamine analog was then analyzed by ion-pair reversed-phase HPLC. After 48 hours, degradation of DESC to two new amine-containing derivatives occurred in IMEM (FIG. 9A, B) but not in PBS (FIG. 9C), as evidenced by the appearance of a major (compound 1) and minor (compound 2) peaks of o-phthaldialdehyde-reactive material eluting earlier than DESC. […] After 48 hours, i.e. the interval at which freshly made DESC-containing media were added to cell cultures in growth experiments, 40% of the DESC originally present had been decomposed by IMEM. […]

The test system of the next data set is polyamine transporter. Put plainly: Inhibition of [14C]spermine uptake in ZR-75-1 cells. It is filed as cell-based, human. As to conditions: 3μM substrate (Example 11), read-out: Ki, [14C]spermine transport.
Data set [4] relates to ZR-75-1 cells. Kind of data set: Reversal of DFMO-induced growth inhibition by exogenous spermidine. Particulars: 50 μM DESC, DESC:spermidine ratio up to 500. In kind it is cell-based, human. The procedure: For growth studies, ZR-75-1 cells were cultured in MEZR medium or in phenol red-free RPMI 1640 supplemented with 2 mM L-glutamine, 1 mM sodium pyruvate, 15 mM Hepes, antibiotics, 1 nM 17β-estradiol, 0.5 μg of bovine insulin per ml and 5% (v/v) charcoal-treated fetal bovine serum (SD medium), as indicated in the text. When polyamines or polyamine analogs were added to serum-containing media, 1 mM aminoguanidine was added to inhibit bovine serum amine oxidase (BSAO) activity (Morgan, D. M. L. 1989, in The Physiology of Polyamines (Bachrach, U., and Heimer, Y. M. eds) Vol. I, pp. 203-229, CRC Press, Boca Raton). The effect of the transport inhibitors on cell growth was measured by incubating ZR-75-1 cells for 11 days in medium supplemented with antagonist, polyamines and/or 1 mM DFMO as indicated, followed by colorimetric determination of DNA content with 3,4-diaminobenzoic acid (Simard, J., Dauvois, S., Haagensen, D. E., Lėvesque C., Mėrand, Y. and Labriė, F. 1990. Endocrinology 126: 3223-3231).
This possibility was assessed by comparing the ability of DESC to prevent the reversal of DFMO-induced growth inhibition by increasing concentrations of exogenous spermidine.

The record followed here is patent US6949679B1, “Polyamine transport inhibitors” (Universite Laval, priority 1998, dated 2005).

One may read the Ki as the dissociation constant of the complex between target and ligand, obtained from inhibition or displacement.

For the molecule `NCCCNCCCC(NCCCN)C(=O)NCCSSCCNC(=O)C(CCCNCCCN)NCCCN` (centres unmarked) [DESC, 2,2′-dithiobis(N-ethyl-spermine-5-carboxamide)], the “Stability in aqueous solutions” value in data set [1] is on record as “stable for months”. For the same molecule, the “Decrease of net spermidine accumulation” value in the data set with ZR-75-1 cells [2] is given as 50%. For the same molecule, the “DESC originally present decomposed” value in data set [3] worked out at 40%. Also, the Ki in the data set on polyamine transporter amounted to 17 µM. Moreover, the “Ability to prevent reversal of DFMO-induced growth inhibition by spermidine” value in the data set on ZR-75-1 cells [4] is “unable to prevent the reversal”.
